Data: US20020103228A1, “Composition and method for use of pyridinium derivatives in cosmetic and therapeutic applications” (TORRENT PHARMACEUTICALS LTD., priority 1999, published 2002)
“And” between values parts separate entries of the source, which are not always exact repeats. Identical values can stand only once.

What was measured:
[1] = Free radical scavenging activity on ABTS radical cation; type: biochemical
Protocol: This method measures the relative ability of free radical scavenging substances to scavenge the ABTS^.+ i.e. 2,2-Azino-bis-(3-ethyl benzo thiazoline-6-sulfonate) radical cation as compared to a standard amount of standard or free radical scavengers antioxidants. Incubation of ABTS with Peroxidase (metmyoglobin) and hydrogen peroxide results in the production of radical cation ABTS^.+. This species is blue-green in colour and can be detected at 730 nm. Antioxidants or free radical scavengers in the added sample that causes suppression of the color to a degree that is proportional to their concentration.
Preparation of Buffer Solutions
A. Phosphate Citrate Buffer (pH 5.0). 48.5 ml of 0.1M citric acid with sufficient 0.2M disodium hydrogen phosphate to produce 100 ml.
B. Phosphate Buffer Saline (PBS): Dissolve 40.0 g of NaCl, 1.0 g of KCl, 1.0 g of KH2PO4 and 3.05 g of Na2HPO4 in 1 liter milli-Q water. Dilute 200 ml of above solution to 1 liter with milli-Q water (pH 7.4-7.6).
C. 3 μM stock solution of Peroxidase was prepared in phosphate buffer saline pH 7.4(PBS).
D. 1.08 mM stock solution of Hydrogen peroxide was prepared in phosphate buffer saline pH 7.4 (PBS).
Preparation of ABTS Stock Solution
1 tablet (10 mg) was dissolved in phosphate citrate buffer (pH 5.0).
Preparation of ABTS Working Solution
5.0 ml of ABTS stock solution was diluted with PBS to 20 ml.
Preparation of Horse Radish Peroxidase Stock Solution
320 μg of the enzyme was dissolved in 2.5 ml of PBS.
Preparation of Hydrogen Peroxide (1.08 mM) Solution
12 μl of Hydrogen Peroxide (30% w/v) was diluted to 100 ml with PBS. […]
Preparation of ABTS Radical Stock Solution
To 18 ml of ABTS stock solution, 100 μl of Horseradish Peroxidase stock solution was added.
As soon as 1.5 ml of hydrogen peroxide solution was added to the above solution, blue-green colour of the ABTS radicals appeared. This solution was incubated at 30° C. for 30 min.
Preparation of Control Solution
980 μl of ABTS radical stock solution was added to an eppendorf tube. To it was added 100 μl of various PBS solution.
Preparation of test Solution
980 μl of ABTS radical stock solutions were added to different eppendorf tubes. To it were added 100 μl of various concentrations of drug solution.
Measurement of Absorbance (O.D)
The absorbance of control and test samples was recorded immediately at 730 nm taking PBS as blank.
Calculation: The percent antioxidant activity was calculated according to the formula. % Antioxidant activity=[O.D of test sample/O.D of control*100]−100.

AGE-BSA = target: T1, AGE-BSA (Bos taurus, UniProt P02769); test: In-vitro AGE breaking activity by ELISA; type: biochemical, Bovine; conditions: 37° C., 24 hours
T1 construct: Bovine serum albumin (fraction V) (BSA); from tissue; host or cells: bovine serum (fraction V); glycated in house with 1.6 M glucose at 37 °C for 16 weeks
T1 sequence (P02769 25-607): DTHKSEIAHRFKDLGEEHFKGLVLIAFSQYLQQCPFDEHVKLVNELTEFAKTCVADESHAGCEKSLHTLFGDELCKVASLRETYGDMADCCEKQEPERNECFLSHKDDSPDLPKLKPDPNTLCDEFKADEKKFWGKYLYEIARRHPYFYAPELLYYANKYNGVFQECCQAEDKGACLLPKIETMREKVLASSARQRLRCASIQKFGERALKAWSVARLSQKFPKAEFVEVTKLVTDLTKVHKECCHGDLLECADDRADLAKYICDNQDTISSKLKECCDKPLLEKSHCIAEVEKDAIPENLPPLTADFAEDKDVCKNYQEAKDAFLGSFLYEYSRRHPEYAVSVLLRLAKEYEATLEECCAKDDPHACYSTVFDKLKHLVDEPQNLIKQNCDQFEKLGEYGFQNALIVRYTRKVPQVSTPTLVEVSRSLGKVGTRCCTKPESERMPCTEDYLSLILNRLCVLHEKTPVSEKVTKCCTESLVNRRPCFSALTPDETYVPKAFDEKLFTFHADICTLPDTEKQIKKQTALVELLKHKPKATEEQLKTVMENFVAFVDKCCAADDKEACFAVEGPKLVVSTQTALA
Protocol: AGE breaking activity has been confirmed by the screening procedure as mentioned below:
Methods of experiment: Elisa (Enzyme Linked Immunosorbent Assay)
160 mg/ml of protein, bovine serum albumin, BSA and 1.6M glucose sugar were dissolved in phosphate buffered saline, PBS. Sodium azide was added at 0.02% concentration as a preservative. The solution was filtered asceptically through a […] filter and kept for aging at 37° C. for 16 weeks. After 16 weeks the solution was dialyzed against PBS, aliquoted and stored at −20° C.
To determine the AGE breaking activity, 10 μg/ml of the 16 weeks AGE-BSA was incubated with different concentrations of the test compounds at 37° C. for 24 hours and AGE breaking activity of the test compounds by ELISA was determined.
ELISA was performed as follows
1. Different concentrations of 16 weeks AGE-BSA were coated on a microtiter plate as standard. Each concentration is coated in triplicates.
2. The test samples were coated on microtiter plate at a concentration of 5 ng to 20 ng per well in triplicates
3. The plate was incubated at 37° C. for one hour.
4. After incubation the plate was washed with PBST (PBS with 0.05% Tween 20).
5. Blocking with 5% skimmed milk in PBS at 37° C. for one hour was done.
6. The plate was washed with PBST.
7. Primary antibody against AGE-BSA was added and the plate is incubated at 37° C. for one hour.
8. The plate was washed with PBST
9. Secondary antibody anti rabbit HRPO (Horse-Radish Per Oxidase) conjugate was added and the plate is incubated at 37° C. for one hour.
10. The plate was washed with PBST.
11. Colour development with OPD (orthophenylenediamine dihydrochloride) and hydrogen peroxide was done.
12. OD (optical density) at (450 nm reading-620 nm reading) was measured after incubation at 37° C. for 15 minutes with Microplate ELISA Reader
The breaker activity of the compounds were determined by the following formula: [formula]
OD450-620Control=Absorbance of 20 ng AGE-BSA after incubation at 37° C. for 24 hours without test compound
OD450-620Test=Absorbance of 20 ng AGE-BSA after incubation at 37° C. for 24 hours with required concentration of test compound
Using specific examples, the % AGE breaking activity was calculated and recorded in Table 2.

SMILES | Relative Free Radical Scavenging Activity (%) on ABTS ([1]; 11.5 μM) [%] | Relative Free Radical Scavenging Activity (%) on ABTS ([1]; 23.0 μM) [%] | Relative Free Radical Scavenging Activity (%) on ABTS ([1]; 46.0 μM) [%] | Relative Free Radical Scavenging Activity (%) on ABTS ([1]; 92.5 μM) [%] | Relative Free Radical Scavenging Activity (%) on ABTS ([1]; 925 μM) [%] | % Breakage (AGE-BSA; 10 mM test compound) [%] | % Breakage (AGE-BSA; 25 mM test compound) [%] | Relative Free Radical Scavenging Activity (%) on ABTS ([1]; 11.5 μM, listed as Compound No. 64, 11.5 µM) | Relative Free Radical Scavenging Activity (%) on ABTS ([1]; 23.0 μM, listed as Compound No. 64, 23 µM) | Relative Free Radical Scavenging Activity (%) on ABTS ([1]; 46.0 μM, listed as Compound No. 64, 46 µM) | Relative Free Radical Scavenging Activity (%) on ABTS ([1]; 92.5 μM, listed as Compound No. 64, 92.5 µM) | % Breakage (AGE-BSA; 2.5 mM test compound) [%] | % Breakage (AGE-BSA; 1 mM test compound) [%]
COCCOC(=O)c1ccc[n+](CC(=O)c2ccc(Cl)cc2Cl)c1.[Br-] [Compound 22, 1-(2-(2′,4′-dichlorophenyl)-2-oxoethyl)-3-(2(methoxy)ethyloxycarbonyl)pyridinium bromide] | 27.9 | 50.9 | 69.3 | 79.7 | 100 | 13 | 41 |  |  |  |  |  | 
CS(=O)(=O)NNC(=O)c1ccc[n+](CC(=O)c2cc([N+](=O)[O-])cs2)c1.[Br-] [Compound 64, 1-(2-(4-nitrothien-2-yl)-2-oxoethyl)-3-(methanesulfonyl hydrazinocarbonyl)pyridinium bromide] |  |  |  |  | 100 | 60.94 |  | 41.8% and 26.01% | 55.7% and 57.39% | 72.2% and 99.30% | 99.0% and 99.62% |  | 
O=C(C[n+]1cccc(C(=O)NNc2ccccc2)c1)Nc1ccccc1.[Cl-] [Compound 65, 1-(2-phenylamino-2-oxoethyl)-3-(phenyl hydrazinocarbonyl)pyridinium chloride] | 27.67 | 59.20 | 94.14 | 100.00 |  |  |  |  |  |  |  | 68.35 | 
O=C(NNS(=O)(=O)C(F)(F)F)c1ccc[n+](CC(=O)c2cccs2)c1.[Br-] [Compound 68, 1-(2-thien-2′-yl-2-oxoethyl)-3-(trifluoromethanesulfonyl hydrazinocarbonyl)-pyridinium bromide] | 38.47 | 43.54 | 89.32 | 95.07 |  | 92.64 |  |  |  |  |  |  | 
CS(=O)(=O)NNC(=O)c1ccc[n+](CC(=O)c2ccc([N+](=O)[O-])s2)c1.[Cl-] [Compound 67] | 13.11 | 50.70 | 97.46 | 99.43 |  |  |  |  |  |  |  |  | 42.01
CS(=O)(=O)NNC(=O)c1ccc[n+](CC(=O)N2CCC(Cc3ccccc3)CC2)c1.[Cl-] [Compound 51, 1-(2-(4-benzylpiperidin-1-yl)-2-oxoethyl)-3-(methanesulfonyl hydrazinocarbonyl)pyridinium chloride] | 0.00 | 21.64 | 52.82 | 83.94 |  | 20.94 |  |  |  |  |  |  | 
NC(=O)c1cc(C(=O)NNC(=O)c2ccc[n+](CC(=O)c3cccs3)c2)c[n+](CC(=O)c2cccs2)c1.[Cl-].[Cl-] [Compound 60, 1-[1-(2-thien-2′-yl-2-oxoethyl)-5-aminocarbonyl-3-carbonylpyridinium]-2-[1-(2-Thien-2′-yl-2-oxoethyl)-3-carbonylpyridinium]hydrazine dichloride] | 44.1 | 59.8 | 69.4 | 99.9 | 100 |  |  |  |  |  |  |  | 95.36
CS(=O)(=O)NNC(=O)c1ccc[n+](CC(=O)c2ccc(Cl)s2)c1.[Br-] [Compound 55, 1-(2-(5-chlorothien-2-yl)-2-oxoethyl)-3-(methanesulfonyl hydrazinocarbonyl)pyridinium bromide] | 46.47 | 84.97 | 99.50 | 99.93 |  | 40.85 |  |  |  |  |  |  | 
